In patent US12599560B2, “Lipids and lipid nanoparticle formulations” (Longuide Biopharma Corporation, priority 2023, dated 2026):

Columns and labels:
mice = test: In vivo delivery of FLuc-mRNA lipid nanoparticle preparations in mice (IVIS imaging); parameters: In vivo IVIS / In vivo IVIS (liver) / In vivo IVIS (spleen): unit not given here
Outline: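 FLuc-mRNA LNPs given intramuscularly into thigh rectus femoris or intravenously via tail vein, about 75 μL per mouse, 3 mice. D-Luciferin (200 μL, 15 mg/mL) injected i.p. 10–15 min before IVIS imaging at set times after dosing.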

[1] = Osmotic pressure by freezing point osmometer; type: physicochemical; conditions: formulation No. 1, molar ratio 1.50:20:33.50:45.00
Experimental: 50 μL of the nucleic acid lipid nanoparticle solution (containing about 0.04 mg/mL mRNA) was taken and the osmotic pressure of the nanopreparation was detected by freezing point penetrometer (Gonotec GmbH, OSMOMAT 3000-D).

A549 cells = test: Cytotoxicity assay (CCK-8), A549; type: cell-based
Experimental: (§1) A549 cells were digested and collected the day before treatment and the cell concentration was adjusted to 2*10^5 cells/mL, 200 μL cell culture medium with a concentration of 2*10^5 cells/mL was added to the 96-well plate, resulting in approximately 4*10^4 cells per well in the 96-well plate. Digested and collected DC2.4 cells and adjusted the cell concentration to 1*10^5 cells/mL, added 200 μL cell culture medium with a concentration of 1*10^5 cells/mL to the 96-well plate, so that the number of cells per well in the 96-well plate is approximately 2*10^4. The cells were incubated in a cell culture incubator (Esco Micro Pte Ltd, Singapore, CLM-170B-8-NF) at 37° C. 5% CO2 for 24 h.
(§2) On the day of cell treatment, the medium (Thermo Fisher Scientific) was aspirated from the 96-well plate, 200 μL of PBS was added to each well to rinse the cells and then the PBS (Thermo Fisher Scientific) was removed, and 180 μL of opti-MEM (Thermo Fisher Scientific) was added to each well of the treatment group.
(§3) Different volumes of the preparation were taken and diluted by adding the buffer used for the preparation or the buffer used for dialysis, and four dosing concentrations were prepared for each preparation, and 20 μL of the diluted nanopreparation was added to each well of a 96-well plate (3 replicate wells for each concentration), and the dosing concentrations of the preparation were about 50 ng mRNA/well, 100 ng mRNA/well, 200 ng mRNA/well, and 300 ng mRNA/well, respectively.
(§4) The 96-well cell culture plate was placed in a cell culture incubator and incubated at 37° C. 5% CO2 for 4 h. The medium was sucked up, and 200 μL of DMEM complete medium was added to each well and incubated for 20 h for detection.
(§5) Diluted CCK-8 detection reagent (Shanghai Beyotime Biotechnology Co., Ltd.) masterbatch (900 μL complete medium+100 μL CCK-8 detection reagent) with DMEM complete medium at 9:1 to prepare CCK-8 working solution.
(§6) Take out the 96-well cell culture plate and removed the supernatant. Before detection, the 96-well plate was added with 100 μL CCK-8 working solution, incubated in the cell culture incubator at 37° C. 5% CO2 for 2 h, and analyzed by plate reader. The cell viability was calculated to reflect the cytotoxicity.

DC2.4 cells [2] = test: Cell transfection assay (D-Luciferin), DC2.4; type: cell-based
Experimental: as §1, §2, §3, §4
D-Luciferin (Biohub International Trade Co., Ltd.) stock solution (9900 μL of complete medium+100 μL of 25 mg/mL of D-Luciferin stock solution) was diluted with DMEM complete medium at 99:1 to make a working solution at the concentration of 250 μg/mL (25 μg per well).
The 96-well cell culture plate was taken out and the supernatant was removed. Before imaging, the 96-well plate was added with 100 μL of D-Luciferin working solution, incubated at 37° C. for 5 min, and imaged and analyzed by the plate reader.

DC2.4 cells [3] = test: Cytotoxicity assay (CCK-8), DC2.4; type: cell-based; conditions: formulation No. 2
Experimental: as §1, §2, §3, §4, §5, §6

SMILES: CCCCCCCCCCCCOC(=O)C(O)CN(CCCN1CCN(CCCN(CC(O)C(=O)OCCCCCCCCCCCC)CC(O)C(=O)OCCCCCCCCCCCC)CC1)CC(O)C(=O)OCCCCCCCCCCCC (stereo not shown) [Compound L0191]
- In vivo IVIS (mice; Table 2, IM, whole body scan): 8.97 × 10^7
- In vivo IVIS (liver) (mice; Table 2, IV, liver): 2.77 × 10^8
- In vivo IVIS (spleen) (mice; Table 2, IV, spleen): 1.03 × 10^8
- In vivo IVIS (mice; Table 4, IM): 2.12 × 10^7
- In vivo IVIS (mice; Table 4, IV): 9.64 × 10^8
- in vivo delivery efficiency as compared to the benchmark compound SM102 (mice; certain formulations, Table 2): superior in vivo delivery efficiency
- osmotic pressure [1]: 2139
- cellular toxicity (in words) (A549 cells; all tested formulations, even at high doses, e.g., 300 ng/well): low to no cellular toxicity
- A549 cellular tox (% cells alive) (A549 cells; formulation No. 1, 50 ng/well): 103.42%
- A549 cellular tox (% cells alive) (A549 cells; formulation No. 1, 100 ng/well): 105.39%
- A549 cellular tox (% cells alive) (A549 cells; formulation No. 1, 200 ng/well): 103.90%
- A549 cellular tox (% cells alive) (A549 cells; formulation No. 1, 300 ng/well): 103.50%
- A549 cellular tox (% cells alive) (A549 cells; formulation No. 2, 50 ng/well): 103.82%
- A549 cellular tox (% cells alive) (A549 cells; formulation No. 2, 100 ng/well): 105.86%
- A549 cellular tox (% cells alive) (A549 cells; formulation No. 2, 200 ng/well): 109.06%
- A549 cellular tox (% cells alive) (A549 cells; formulation No. 2, 300 ng/well): 104.35%
- DC2.4 cell transfection/RLU (DC2.4 cells [2]; formulation No. 1, 50 ng/well): 44580.00 RLU
- DC2.4 cell transfection/RLU (DC2.4 cells [2]; formulation No. 1, 100 ng/well): 38457.67 RLU
- DC2.4 cell transfection/RLU (DC2.4 cells [2]; formulation No. 1, 200 ng/well): 51212.00 RLU
- DC2.4 cell transfection/RLU (DC2.4 cells [2]; formulation No. 1, 300 ng/well): 49462.00 RLU
- DC2.4 cell transfection/RLU (DC2.4 cells [2]; formulation No. 2, 50 ng/well): 22385.67 RLU
- DC2.4 cell transfection/RLU (DC2.4 cells [2]; formulation No. 2, 100 ng/well): 31266.67 RLU
- DC2.4 cell transfection/RLU (DC2.4 cells [2]; formulation No. 2, 200 ng/well): 45175.33 RLU
- DC2.4 cell transfection/RLU (DC2.4 cells [2]; formulation No. 2, 300 ng/well): 66928.33 RLU
- DC2.4 cellular tox (% cells alive) (DC2.4 cells [3]; 50 ng/well): 95.97%
- DC2.4 cellular tox (% cells alive) (DC2.4 cells [3]; 100 ng/well): 87.33%
- DC2.4 cellular tox (% cells alive) (DC2.4 cells [3]; 200 ng/well): 75.79%
- DC2.4 cellular tox (% cells alive) (DC2.4 cells [3]; 300 ng/well): 92.20%
